Experimental data: publication PMC12845261, “Design, Synthesis, and Biological Evaluation of N-Acyl-Hydrazone-Linked Quinazolinone Derivatives with Antioxidant, Antimicrobial, and Anticancer Potential” (Pharmaceuticals, 2025)
“And” between values parts separate entries of the source, which are not always exact repeats. Equal entries are not always repeated.

Legend:
[1] = tested on: VERO (non-tumoral African green monkey kidney epithelial cells); assay: Cytotoxicity, MTT assay; assay type: cell-based; settings: 24 h; for Cytotoxic effect on normal cells (in words): 3.125 to 50 µM
[2] = Artemia franciscana toxicity assay (nauplii lethality); settings: Artemia franciscana (brine shrimp) nauplii, in vivo
Protocol: (§1) The brine shrimp cysts (Artemia franciscana) were sourced from Great Salt Lake (USA) through Ocean Star International (Burlingame, CA, USA) via S.K. Trading (Bangkok, Thailand), which carried out the repackaging. Artificial seawater was prepared by dissolving a CoralMarine salt mixture (Grotech) in distilled water to achieve a concentration of about 30 g/L. The cysts were placed in artificial seawater at 25 °C under vigorous aeration. They were allowed to hatch 48 h before the onset of the test, the brine shrimp nauplii stage being selected for the toxicity assay.
(§2) The analyzed compounds were dissolved in 100 μL DMSO and then suspended in seawater to a final volume of 10 mL. The starting concentration was 1000 μM, followed by binary dilutions with seawater: 500 μM, 250 μM, 125 μM and 62.5 μM. A blank solution of 100 μL DMSO and seawater up to 10 mL was also prepared. 24 well-plates (6 × 4) were used and the assay was conducted in triplicate for each concentration and the blank solution. 15 ± 3 nauplii were added to each well, and the plates were placed into the dark. The viability of the nauplii was monitored at 24 and 48 h.
(§3) The LC50 was estimated by interpolation using RStudio 2025.09.2 [84, 85], the drc package. Several non-linear regression models were applied: generalized log logistic regressions (LL.2, LL2.2, LL.4, LL.5) and Weibull functions (W1.2, W1.3, W2.2, W2.3).

Artemia franciscana = assay: as above; settings: from LC50 at 48 h, standard aquatic toxicity classifications [53]
Protocol: as §1, §2, §3

[3] = at lower concentrations (below 50 µM)

SMILES	Cytotoxic effect on normal cells (in words) [1]	Effect on cell viability (in words) [1, 3]	also measured
COc1ccc(O)c(/C=N/NC(=O)Cn2c(C)nc3ccccc3c2=O)c1 [Compound 1e, N′-[(E)-(2-hydroxy-5-methoxyphenyl)methylidene]-2-(2-methyl-4-oxoquinazolin-3(4H)-yl)acetohydrazide]	strong cytotoxic effects	–	–
Cc1nc2ccccc2c(=O)n1CC(=O)NN [Compound 2, 2-(2-methyl-4-oxoquinazolin-3(4H)-yl)acetohydrazide]	well tolerated	–	LC50 at 48 h [2]: 335 µM and 77.2 µg/mL; Toxicity class (Artemia franciscana): moderate toxicity
COc1cc(/C=N/NC(=O)Cn2c(C)nc3ccccc3c2=O)cc([N+](=O)[O-])c1O [Compound 1f, N′-[(E)-(4-hydroxy-3-methoxy-5-nitrophenyl)methylidene]-2-(2-methyl-4-oxoquinazolin-3(4H)-yl)acetohydrazide]	well tolerated	–	–
Cc1nc2ccccc2c(=O)n1CC(=O)N/N=C/c1cc(Br)cc(Br)c1O [Compound 1b, N′-[(E)-(3,5-bromo-2-hydroxyphenyl)methylidene]-2-(2-methyl-4-oxoquinazolin-3(4H)-yl)acetohydrazide]	–	statistically significant increase in cell viability	–
COc1ccc(/C=N/NC(=O)Cn2c(C)nc3ccccc3c2=O)c(O)c1 [Compound 1d, N′-[(E)-(2-hydroxy-4-methoxyphenyl)methylidene]-2-(2-methyl-4-oxoquinazolin-3(4H)-yl)acetohydrazide]	–	statistically significant increase in cell viability	Effect on cell viability (in words) ([1]; at 50 µM, compared to the untreated control): statistically significant decrease in viability
